Values after ≈ are worked out from the molar mass of the structure shown. Active and inactive are the calls of the source. No cut-off for these calls is given here.
What was measured:
[1] = tested on: Escherichia coli; assay: Antibacterial activity against Escherichia coli B 906 assessed as growth inhibition at 0.5% after 24 hr by agar disk diffusion method; format: functional
[2] = tested on: Escherichia coli; assay: Antibacterial activity against Escherichia coli B 906 assessed as growth inhibition at 0.1% after 24 hr by agar disk diffusion method; format: functional
[3] = tested on: Aspergillus niger; assay: Antifungal activity against Aspergillus niger assessed as growth inhibition after 24 to 72 hr by serial dilution method; format: functional
[4] = tested on: Yamadazyma tenuis; assay: Antifungal activity against Candida tenuis assessed as growth inhibition after 24 to 72 hr by serial dilution method; format: functional
[5] = tested on: Mycobacterium; assay: Antibacterial activity against Mycobacterium luteum B-917 assessed as growth inhibition after 24 to 72 hr by serial dilution method; format: functional
[6] = tested on: Staphylococcus aureus; assay: Antibacterial activity against Staphylococcus aureus 209-P assessed as growth inhibition after 24 to 72 hr by serial dilution method; format: functional
[7] = tested on: Escherichia coli; assay: Antibacterial activity against Escherichia coli B 906 assessed as growth inhibition after 24 to 72 hr by serial dilution method; format: functional, organism-based
[8] = tested on: Aspergillus niger; assay: Antifungal activity against Aspergillus niger assessed as growth inhibition at 0.1% after 48 to 72 hr by agar disk diffusion method; format: functional
[9] = tested on: Aspergillus niger; assay: Antifungal activity against Aspergillus niger assessed as growth inhibition at 0.5% after 48 to 72 hr by agar disk diffusion method; format: functional
[10] = tested on: Yamadazyma tenuis; assay: Antifungal activity against Candida tenuis assessed as growth inhibition at 0.1% after 48 to 72 hr by agar disk diffusion method; format: functional
[11] = tested on: Yamadazyma tenuis; assay: Antifungal activity against Candida tenuis assessed as growth inhibition at 0.5% after 48 to 72 hr by agar disk diffusion method; format: functional
[12] = tested on: Mycobacterium; assay: Antibacterial activity against Mycobacterium luteum B-917 assessed as growth inhibition at 0.1% after 24 hr by agar disk diffusion method; format: functional
[13] = tested on: Mycobacterium; assay: Antibacterial activity against Mycobacterium luteum B-917 assessed as growth inhibition at 0.5% after 24 hr by agar disk diffusion method; format: functional
[14] = tested on: Staphylococcus aureus; assay: Antibacterial activity against Staphylococcus aureus 209-P assessed as growth inhibition at 0.1% after 24 hr by agar disk diffusion method; format: functional
[15] = tested on: Staphylococcus aureus; assay: Antibacterial activity against Staphylococcus aureus 209-P assessed as growth inhibition at 0.5% after 24 hr by agar disk diffusion method; format: functional

## CCOC1=C(Sc2ccc(O)cc2)C(=O)c2ccccc2C1=O
[1]
  diameter of the inhibition zone (DIZ): 0 mm
[2]
  diameter of the inhibition zone (DIZ): 0 mm
[3]
  MIC: 15.6 µg/mL (≈ 47.8 µM)
[4]
  MIC: 31.2 µg/mL (≈ 95.6 µM)
[5]
  MIC: 125 µg/mL (≈ 383 µM)
[6]
  MIC: inactive
[7]
  MIC: inactive
[8]
  diameter of the inhibition zone (DIZ): 0 mm
[9]
  diameter of the inhibition zone (DIZ): 0 mm
[10]
  diameter of the inhibition zone (DIZ): 0 mm
[11]
  diameter of the inhibition zone (DIZ): 0 mm
[12]
  diameter of the inhibition zone (DIZ): 0 mm
[13]
  diameter of the inhibition zone (DIZ): 0 mm
[14]
  diameter of the inhibition zone (DIZ): 0 mm
[15]
  diameter of the inhibition zone (DIZ): 0 mm

## O=C1C(SCc2ccc(Cl)cc2)=C(N2CCN(c3ccccc3F)CC2)C(=O)c2ccccc21
[1]
  diameter of the inhibition zone (DIZ): 0 mm
[2]
  diameter of the inhibition zone (DIZ): 0 mm
[3]
  MIC: inactive
[4]
  MIC: inactive
[5]
  MIC: inactive
[6]
  MIC: inactive
[7]
  MIC: inactive
[8]
  diameter of the inhibition zone (DIZ): 0 mm
[9]
  diameter of the inhibition zone (DIZ): 0 mm
[10]
  diameter of the inhibition zone (DIZ): 0 mm
[11]
  diameter of the inhibition zone (DIZ): 0 mm
[12]
  diameter of the inhibition zone (DIZ): 0 mm
[13]
  diameter of the inhibition zone (DIZ): 0 mm
[14]
  diameter of the inhibition zone (DIZ): 0 mm
[15]
  diameter of the inhibition zone (DIZ): 0 mm

## O=C1C(SCc2ccc(Cl)cc2)=C(N2CCC(C(O)(c3ccccc3)c3ccccc3)CC2)C(=O)c2ccccc21
[1]
  diameter of the inhibition zone (DIZ): 0 mm
[2]
  diameter of the inhibition zone (DIZ): 0 mm
[3]
  MIC: 31.2 µg/mL (≈ 53.8 µM)
[4]
  MIC: 7.8 µg/mL (≈ 13.4 µM)
[5]
  MIC: inactive
[6]
  MIC: inactive
[7]
  MIC: inactive
[8]
  diameter of the inhibition zone (DIZ): 0 mm
[9]
  diameter of the inhibition zone (DIZ): 0 mm
[10]
  diameter of the inhibition zone (DIZ): 0 mm
[11]
  diameter of the inhibition zone (DIZ): 0 mm
[12]
  diameter of the inhibition zone (DIZ): 0 mm
[13]
  diameter of the inhibition zone (DIZ): 0 mm
[14]
  diameter of the inhibition zone (DIZ): 0 mm
[15]
  diameter of the inhibition zone (DIZ): 0 mm

## O=C1C2=C(SCCCCSC3=C(SCCCCS2)C(=O)c2ccccc2C3=O)C(=O)c2ccccc21
[1]
  diameter of the inhibition zone (DIZ): 0 mm
[2]
  diameter of the inhibition zone (DIZ): 0 mm
[3]
  MIC: 15.6 µg/mL (≈ 28.2 µM)
[4]
  MIC: 3.9 µg/mL (≈ 7.06 µM)
[5]
  MIC: 1.9 µg/mL (≈ 3.44 µM)
[6]
  MIC: 500 µg/mL (≈ 905 µM)
[7]
  MIC: inactive
[8]
  diameter of the inhibition zone (DIZ): 16.4 mm
[9]
  diameter of the inhibition zone (DIZ): 19.4 mm
[10]
  diameter of the inhibition zone (DIZ): 9.7 mm
[11]
  diameter of the inhibition zone (DIZ): 11.4 mm
[12]
  diameter of the inhibition zone (DIZ): 21.4 mm
[13]
  diameter of the inhibition zone (DIZ): 25.4 mm
[14]
  diameter of the inhibition zone (DIZ): 10.4 mm
[15]
  diameter of the inhibition zone (DIZ): 12 mm

## NYSTATIN
[8]
  inhibition zone (IZ): 20 mm
[10]
  inhibition zone (IZ): 19 mm

## O=C1C(SCc2ccc(Cl)cc2)=C(N2CCCC2)C(=O)c2ccccc21
[1]
  diameter of the inhibition zone (DIZ): 0 mm
[2]
  diameter of the inhibition zone (DIZ): 0 mm
[3]
  MIC: 15.6 µg/mL (≈ 40.6 µM)
[4]
  MIC: 7.8 µg/mL (≈ 20.3 µM)
[5]
  MIC: 125 µg/mL (≈ 326 µM)
[6]
  MIC: 250 µg/mL (≈ 651 µM)
[7]
  MIC: inactive
[8]
  diameter of the inhibition zone (DIZ): 0 mm
[9]
  diameter of the inhibition zone (DIZ): 0 mm
[10]
  diameter of the inhibition zone (DIZ): 0 mm
[11]
  diameter of the inhibition zone (DIZ): 0 mm
[12]
  diameter of the inhibition zone (DIZ): 8.7 mm
[13]
  diameter of the inhibition zone (DIZ): 14.4 mm
[14]
  diameter of the inhibition zone (DIZ): 0 mm
[15]
  diameter of the inhibition zone (DIZ): 0 mm

## COC(=O)CCSC1=C(Cl)C(=O)c2ccccc2C1=O
[1]
  diameter of the inhibition zone (DIZ): 0 mm
[2]
  diameter of the inhibition zone (DIZ): 0 mm
[3]
  MIC: 7.8 µg/mL (≈ 25.1 µM)
[4]
  MIC: 1.9 µg/mL (≈ 6.11 µM)
[5]
  MIC: 7.8 µg/mL (≈ 25.1 µM)
[6]
  MIC: inactive
[7]
  MIC: inactive
[8]
  diameter of the inhibition zone (DIZ): 11 mm
[9]
  diameter of the inhibition zone (DIZ): 10.4 mm
[10]
  diameter of the inhibition zone (DIZ): 12.4 mm
[11]
  diameter of the inhibition zone (DIZ): 13 mm
[12]
  diameter of the inhibition zone (DIZ): 9 mm
[13]
  diameter of the inhibition zone (DIZ): 18 mm
[14]
  diameter of the inhibition zone (DIZ): 6 mm
[15]
  diameter of the inhibition zone (DIZ): 8 mm

## O=C1C(SCc2ccc(Cl)cc2)=C(N2CCOCC2)C(=O)c2ccccc21
[1]
  diameter of the inhibition zone (DIZ): 0 mm
[2]
  diameter of the inhibition zone (DIZ): 0 mm
[3]
  MIC: inactive
[4]
  MIC: inactive
[5]
  MIC: inactive
[6]
  MIC: inactive
[7]
  MIC: inactive
[8]
  diameter of the inhibition zone (DIZ): 0 mm
[9]
  diameter of the inhibition zone (DIZ): 0 mm
[10]
  diameter of the inhibition zone (DIZ): 0 mm
[11]
  diameter of the inhibition zone (DIZ): 0 mm
[12]
  diameter of the inhibition zone (DIZ): 7 mm
[13]
  diameter of the inhibition zone (DIZ): 8 mm
[14]
  diameter of the inhibition zone (DIZ): 0 mm
[15]
  diameter of the inhibition zone (DIZ): 0 mm

## CN[C@H](CC(C)C)C(=O)N[C@H]1C(=O)N[C@@H](CC(N)=O)C(=O)N[C@H]2C(=O)N[C@H]3C(=O)N[C@H](C(=O)N[C@H](C(=O)O)c4cc(O)cc(O)c4-c4cc3ccc4O)[C@H](O)c3ccc(c(Cl)c3)Oc3cc2cc(c3O[C@@H]2O[C@H](CO)[C@@H](O)[C@H](O)[C@H]2O[C@H]2C[C@](C)(N)[C@H](O)[C@H](C)O2)Oc2ccc(cc2Cl)[C@H]1O [VANCOMYCIN]
[2]
  diameter of the inhibition zone (DIZ): 14 mm
[12]
  diameter of the inhibition zone (DIZ): 18 mm
[14]
  diameter of the inhibition zone (DIZ): 15 mm

## CCOC1=C(Sc2nccn2C)C(=O)c2ccccc2C1=O
[1]
  diameter of the inhibition zone (DIZ): 0 mm
[2]
  diameter of the inhibition zone (DIZ): 0 mm
[3]
  MIC: 15.6 µg/mL (≈ 49.6 µM)
[4]
  MIC: 250 µg/mL (≈ 795 µM)
[5]
  MIC: inactive
[6]
  MIC: inactive
[7]
  MIC: inactive
[8]
  diameter of the inhibition zone (DIZ): 0 mm
[9]
  diameter of the inhibition zone (DIZ): 12 mm
[10]
  diameter of the inhibition zone (DIZ): 0 mm
[11]
  diameter of the inhibition zone (DIZ): 0 mm
[12]
  diameter of the inhibition zone (DIZ): 0 mm
[13]
  diameter of the inhibition zone (DIZ): 0 mm
[14]
  diameter of the inhibition zone (DIZ): 0 mm
[15]
  diameter of the inhibition zone (DIZ): 0 mm

## O=C1C(Cl)=C(Sc2c(Cl)c(Cl)c(Cl)c(Cl)c2Cl)C(=O)c2ccccc21
[1]
  diameter of the inhibition zone (DIZ): 0 mm
[2]
  diameter of the inhibition zone (DIZ): 0 mm
[3]
  MIC: 250 µg/mL (≈ 529 µM)
[4]
  MIC: 125 µg/mL (≈ 264 µM)
[5]
  MIC: inactive
[6]
  MIC: inactive
[7]
  MIC: inactive
[8]
  diameter of the inhibition zone (DIZ): 0 mm
[9]
  diameter of the inhibition zone (DIZ): 0 mm
[10]
  diameter of the inhibition zone (DIZ): 0 mm
[11]
  diameter of the inhibition zone (DIZ): 0 mm
[12]
  diameter of the inhibition zone (DIZ): 0 mm
[13]
  diameter of the inhibition zone (DIZ): 0 mm
[14]
  diameter of the inhibition zone (DIZ): 0 mm
[15]
  diameter of the inhibition zone (DIZ): 0 mm

## O=C1C(SCCOc2ccccc2)=C(SCCOc2ccccc2)C(=O)c2ccccc21
[1]
  diameter of the inhibition zone (DIZ): 0 mm
[2]
  diameter of the inhibition zone (DIZ): 0 mm
[3]
  MIC: 7.8 µg/mL (≈ 16.9 µM)
[4]
  MIC: 125 µg/mL (≈ 270 µM)
[5]
  MIC: inactive
[6]
  MIC: inactive
[7]
  MIC: inactive
[8]
  diameter of the inhibition zone (DIZ): 0 mm
[9]
  diameter of the inhibition zone (DIZ): 0 mm
[10]
  diameter of the inhibition zone (DIZ): 0 mm
[11]
  diameter of the inhibition zone (DIZ): 0 mm
[12]
  diameter of the inhibition zone (DIZ): 0 mm
[13]
  diameter of the inhibition zone (DIZ): 8 mm
[14]
  diameter of the inhibition zone (DIZ): 0 mm
[15]
  diameter of the inhibition zone (DIZ): 0 mm

Reference: ChEMBL document CHEMBL3045787, “Synthesis of novel 1,4-naphthoquinone derivatives: antibacterial and antifungal agents” (2013)
